This is an account of results in paper PMC5493638, “Adiponectin is an endogenous anti-fibrotic mediator and therapeutic target” (Scientific Reports, 2017).

One assay concerns skin fibroblasts. Put plainly: In vitro competition binding with labeled peptides. On the set-up: species or system human. Particulars: unlabeled ADP355 100 μg/ml 10 min, then ADP355-Dy675 5 μg/ml 30 min, confocal microscopy. How it is done:
To evaluate in vitro peptide binding, skin fibroblasts seeded on coverslips were preincubated with unlabeled ADP355 (100 μg/ml) for 10 min, followed by labeled ADP355-Dy675 (5 μg/ml), or labeled control peptide (Api88 Dy675, gift from Daniel Knappe, Leipzig, Germany) for 30 min. Cells were fixed in 4% phosphate buffered paraformaldehyde (PFA) and visualized using a Nikon A1 confocal microscope. To evaluate in vivo biodistribution, C57BL6/J mice were injected i.p. with Dy675-coupled peptide (20 μg/mouse or […]) and 10 min later, dorsal skin was harvested and processed for immunofluorescence analysis.

In assay [1] the test system is [SBE]4-luc (canonical Smad pathway). The assay is described as follows: [SBE]4-luc transient transfection reporter assay. The class given is cell-based, human. The following applies: transiently transfected fibroblasts, ADP355 and TGF-β 24 h, luciferase. How it is done:
Fibroblasts at early confluence were transfected with [SBE]4-luc plasmids or indicated reporter constructs using SuperFect Transfection (Qiagen)[61]. Cultures were incubated in serum-free media containing 0.1% BSA for 16 h, followed by ADP355 and TGF-β for a further 24 h[61]. Whole cell lysates were assayed for luciferase activities using the dual-luciferase reporter assay system (Promega, Madison, WI). In each experiment, Renilla luciferase pRL-TK (Promega) was cotransfected as control for transfection efficiency. Experiments were performed in triplicate and repeated at least twice with consistent results. For RNAi-mediated transcript silencing, fibroblasts were transfected with target-specific short interfering siRNA specific for AdipoR1/R2 (Dharmacon, Lafayette, CO) or scrambled control siRNA (10 nM, unless otherwise indicated). Twenty-four hours following transfection, fresh media containing TGF-β (2 ng/ml) or ADP355 (10 μM) were added to the cultures and incubation continued for a further 24 h.
On the technique in general: In a reporter assay the amount or activity of a reporter protein is the signal.

Assay [2] has as its system normal dermal fibroblasts. The assay is described as follows: Scratch assay of fibroblast migration. Format: cell-based, human. Particulars: widths after 48 h. How it is done:
Figure 4 ADP355 inhibits fibrotic responses in normal and SSc skin fibroblasts. (a–d). Confluent cultures of normal dermal fibroblasts were preincubated with ADP355, followed by TGF-β2 for 24 h. (a) Total RNA was subjected to real-time qPCR. Results are mean ± SD of triplicate determinations. *p < 0.05, **p < 0.01. (b) Western blot of whole cell lysates. Representative results. Fold change in Type I collagen (Cgn I) levels relative to control is shown at bottom. (c) Fibroblasts were transiently transfected with [SBE]4-luc reporter plasmids, and cell lysates were assayed for their luciferase activities. Results are mean ± SD of triplicate determinations. **p < 0.001 (d) Scratch assays were performed and the widths determined after 48 h. Results are mean ± SEM of triplicate determinations at three randomly selected sites. (e) 3D human skin equivalents populated with normal fibroblasts were incubated in media with ADP355 and TGF-β2 for 6 days. RNA was isolated for qPCR. Results are mean ± SD of triplicate determinations *p < 0.05, **p < 0.001. (f) SSc skin fibroblasts (n = 5) incubated with ADP355 for 24 h were immunostained with antibodies to αSMA (green) or type I collagen (Cgn1, red), or stained with DAPI (blue). Left panels, representative immunofluorescence photomicrographs (original magnification × 400). Right panels, immunofluorescence intensity. […]

The conditions of assay [3]: cited from earlier work. An excerpt:
(§1) An alternate potential strategy is to mimic adiponectin biological activity using small molecules.

Assay [4] deals with AdipoR-positive cancer cell lines. The following applies: cited from earlier work.
Text: as §1

The next assay relates to AdipoR. The following applies: screening of 66 overlapping 10-amino acid peptides of the globular domain of adiponectin; cited from earlier work.
Text: as §1

Residues, ends and D or L forms follow the SMILES beside them.

For `CCC[C@H](NC(=O)[C@@H]1CCCN1C(=O)[C@@H](NC(=O)[C@H](N)CC(N)=O)[C@@H](C)CC)C(=O)N[C@@H](CC(C)C)C(=O)N[C@@H](Cc1ccc(O)cc1)C(=O)N[C@H](CO)C(=O)N[C@@H](Cc1ccccc1)C(=O)N[C@@H](C)C(=O)N[C@H](CO)C(N)=O` [ADP355, H-DAsn-Ile-Pro-Nva-Leu-Tyr-DSer-Phe-Ala-DSer-NH2] (HELM PEPTIDE1{[dN].I.P.[Nva].L.Y.[dS].F.A.[dS].[am]}$$$$V2.0), in the assay on skin fibroblasts, the binding to fibroblasts entry was “Specific binding”. For the same compound, the “stimulation of [SBE]4-luc activity by TGF-ß” value in assay [1] is given as “abrogated”. In addition, the “stimulation of fibroblast migration” value in assay [2] is listed as “abrogated the stimulation of fibroblast migration”. Besides, the “hypoadiponectinemia and loss of subcutaneous adipose tissue induced by HIV protease inhibitors” value in assay [3] is listed as “reverse”. Besides, the anti-tumor effects result in assay [4] is recorded as “anti-tumor effects”. Moreover, in the assay on AdipoR, the AdipoR agonist activity entry is listed as “potent AdipoR agonist”.
